# Experimental data reported in patent US20110305673A1, “COMPOSITIONS AND METHODS FOR TISSUE REPAIR” (The University of Vermont and State Agriculture College, priority 2008, published 2011).
# Tests used:
# CD133dMSCs = assay: Puromycin kill curve; assay type: cell-based, human; settings: after 3 days
# Description: Based on observations that CD133dMSCs increased their secretion of SDF-1 in culture following exposure to hypoxia and mRNA expression in vivo after injection into stroke penumbra, the role of SDF-1 in mediating the benefits of CD133dMSC CdM was explored using lentiviral shRNA knockdown of SDF-1 with puromycin-selectable vectors. In preliminary studies, kill curves were performed with transduced CD133dMSCs incubated in puromycin-containing culture medium to remove cells that were not transduced by lentivirus. […] Following lentiviral transduction of expanded CD133dMSCs from a single donor with a scrambled shRNA vector, 2 different shRNAs vectors against SDF-1, or a control selectable GFP vector, ELISAs and FACS assays were performed to characterize the cells.
# cardiac progenitor cells [1] = assay: CPC protection study under hypoxia (1% oxygen, 48 hours); assay type: cell-based, rat; settings: inhibitor 10 μM
# Description: Serum-free conditioned media was prepared as described previously (Kiel et al., Cell 2005; 121:1109-1121). cardiac progenitor cells and cardiac fibroblasts were plated at 500 cells/cm^2 and cultured in their growth medium. Three days after plating the medium was removed, the wells were washed twice with PBS, and the cells were then exposed to conditioned media or to fresh serum-free medium (α-MEM). For time course proliferation studies, the conditioned media and serum-free medium were changed every 2 days. In the signal transduction inhibitor studies the following pharmacological inhibitors, were used (10 micromolar): AG490, an inhibitor of Jak2/STAT3 pathway; Stattic, a specific inhibitor of STAT3 phosphorylation at Tyr^705; LY294002, inhibitor of phosphatidylinositol 3-kinase (PI3K)/Akt pathway; and PD98059, extracellular signal-regulated kinase (ERK) inhibitor. […] The hypoxia incubator was a model that measured both CO2 and O2 (Thermo Electron, Form a Series II, model 3130). Oxygen was maintained at 1% by the injection of nitrogen gas and was monitored continuously. Cell numbers were quantified by the fluorescent labeling of nucleic acids (CyQuant dye; Molecular Probes, Carlsbad, Calif.) and with a microplate fluorescence reader (FLX800; Bio-Tek Instruments Inc., Winooski, Vt.) set to 480 nm excitation and 520 nm emission. […]
# cardiac progenitor cells [2] = assay: Signal transduction inhibitor study on CPC number (48 hrs); assay type: cell-based, rat; settings: for cell number ratio to control cell number: CPCs in MSC CdM; for cell number ratio to control cell number / effect on number/growth of CPCs in MSC conditioned media: 48 hrs; for effect on number/growth of CPCs in MSC conditioned media: inhibitor 10 μM
# Description: Serum-free conditioned media was prepared as described previously (Kiel et al., Cell 2005; 121:1109-1121). cardiac progenitor cells and cardiac fibroblasts were plated at 500 cells/cm^2 and cultured in their growth medium. Three days after plating the medium was removed, the wells were washed twice with PBS, and the cells were then exposed to conditioned media or to fresh serum-free medium (α-MEM). For time course proliferation studies, the conditioned media and serum-free medium were changed every 2 days. […] All inhibitors were from Calbiochem (EMD Chemicals, San Diego, Calif.) and were dissolved in dimethyl sulfoxide (DMSO). Cardiac progenitor cells were cultured in conditioned media with the inhibitors or with the equivalent volume of DMSO as a control for 48 hrs. In the protection study, 3 days after plating, the medium was replaced with either the conditioned media or serum-free medium and the cells were exposed to hypoxia in a specialized incubator (1% oxygen) for 48 hours. The hypoxia incubator was a model that measured both CO2 and O2 (Thermo Electron, Form a Series II, model 3130). Oxygen was maintained at 1% by the injection of nitrogen gas and was monitored continuously. Cell numbers were quantified by the fluorescent labeling of nucleic acids (CyQuant dye; Molecular Probes, Carlsbad, Calif.) and with a microplate fluorescence reader (FLX800; Bio-Tek Instruments Inc., Winooski, Vt.) set to 480 nm excitation and 520 nm emission. Each experiment was repeated a minimum of 3 times.
compound,measurement,setting,value
COc1ccc(C[C@H](N)C(=O)N[C@H]2[C@@H](O)[C@H](n3cnc4c(N(C)C)ncnc43)O[C@@H]2CO)cc1 [puromycin],concentration sufficient to remove all untransduced CD133dMSCs,CD133dMSCs,2 µg/mL
N#C/C(=C/c1ccc(O)c(O)c1)C(=O)NCc1ccccc1 [AG490],effect on protective effects of conditioned media during hypoxia,cardiac progenitor cells [1],inhibited the protective effects
same,cell number ratio to control cell number,cardiac progenitor cells [2]; 1 μM,96.3±0.9%
same,cell number ratio to control cell number,cardiac progenitor cells [2]; 5 μM,89.5±0.9%
same,effect on CPC numbers in growth medium,"cardiac progenitor cells [2]; 10 μM, 48 hours",not AG490 significantly diminished
same,effect on number of CPCs in conditioned media from fibroblasts,"cardiac progenitor cells [2]; 10 μM, 48 hours",inhibitory effect
same,effect on number of CPCs in conditioned media from p75MSCs,"cardiac progenitor cells [2]; 10 μM, 48 hours",inhibitory effect
same,effect on number of CPCs in serum-free medium,"cardiac progenitor cells [2]; 10 μM, 48 hours",significantly reduced
same,cell number ratio to control cell number,cardiac progenitor cells [2]; 10 μM,43.4±2.4%
O=[N+]([O-])c1ccc2c(c1)S(=O)(=O)C=C2 [Stattic],effect on protective effects of conditioned media during hypoxia,cardiac progenitor cells [1],blocked the protective effects
same,effect on number/growth of CPCs in MSC conditioned media,cardiac progenitor cells [2],completely blocked
COc1cccc(-c2cc(=O)c3ccccc3o2)c1N [PD98059],effect on number/growth of CPCs in MSC conditioned media,cardiac progenitor cells [2],did not block
